{"source": "paper PMC10046369", "about": "“Low-Affinity/High-Selectivity Dopamine Transport Inhibition Sufficient to Rescue Cognitive Functions in the Aging Rat” (Biomolecules, 2023)", "experiment_in_all_cases": "biochemical", "parameters_in_all_cases": "KINOMEscan competition binding panel, per cent of control", "details_in_all_cases": "read-out: %Ctrl @ 2800nM", "key": {"MAP3K2": {"target": "MAP3K2 (Homo sapiens, UniProt Q9Y2U5)", "protocol": "(§1) A panel of binding assays covering 450 human kinases and disease-relevant mutations was performed by DiscoverX (KINOMEscan®, Freemont, CA, USA) according to the standard and validated protocol defined by the contractor. […] Kinase binding assays This study was outsourced to DiscoverX (KINOMEscan®, Freemont, CA, USA) and is compliant with the corresponding project BUY004-01-p-00001. […] Results are reported as percent control (% Ctrl), where lower numbers indicate stronger hits in the matrix on the following page(s). %Ctrl calculation: ((test compound signal-positive control signal) / (negative control signal – positive control signal)) x 100."}, "[1]": {"target": "T1, RSK2(Kin.Dom.2-C-terminal) (Homo sapiens, UniProt P51812)", "T1 construct": "gene RPS6KA3; Kin.Dom.2-C-terminal", "protocol": "as §1"}, "ACVR1": {"target": "ACVR1 (Homo sapiens, UniProt Q04771)", "protocol": "as §1"}, "EIF2AK1": {"target": "EIF2AK1 (Homo sapiens, UniProt Q9BQI3)", "protocol": "as §1"}, "MET(Y1235D)": {"target": "MET(Y1235D) (Homo sapiens, UniProt P08581, Y1235D)", "sequence (P08581 whole entry Y1235D)": "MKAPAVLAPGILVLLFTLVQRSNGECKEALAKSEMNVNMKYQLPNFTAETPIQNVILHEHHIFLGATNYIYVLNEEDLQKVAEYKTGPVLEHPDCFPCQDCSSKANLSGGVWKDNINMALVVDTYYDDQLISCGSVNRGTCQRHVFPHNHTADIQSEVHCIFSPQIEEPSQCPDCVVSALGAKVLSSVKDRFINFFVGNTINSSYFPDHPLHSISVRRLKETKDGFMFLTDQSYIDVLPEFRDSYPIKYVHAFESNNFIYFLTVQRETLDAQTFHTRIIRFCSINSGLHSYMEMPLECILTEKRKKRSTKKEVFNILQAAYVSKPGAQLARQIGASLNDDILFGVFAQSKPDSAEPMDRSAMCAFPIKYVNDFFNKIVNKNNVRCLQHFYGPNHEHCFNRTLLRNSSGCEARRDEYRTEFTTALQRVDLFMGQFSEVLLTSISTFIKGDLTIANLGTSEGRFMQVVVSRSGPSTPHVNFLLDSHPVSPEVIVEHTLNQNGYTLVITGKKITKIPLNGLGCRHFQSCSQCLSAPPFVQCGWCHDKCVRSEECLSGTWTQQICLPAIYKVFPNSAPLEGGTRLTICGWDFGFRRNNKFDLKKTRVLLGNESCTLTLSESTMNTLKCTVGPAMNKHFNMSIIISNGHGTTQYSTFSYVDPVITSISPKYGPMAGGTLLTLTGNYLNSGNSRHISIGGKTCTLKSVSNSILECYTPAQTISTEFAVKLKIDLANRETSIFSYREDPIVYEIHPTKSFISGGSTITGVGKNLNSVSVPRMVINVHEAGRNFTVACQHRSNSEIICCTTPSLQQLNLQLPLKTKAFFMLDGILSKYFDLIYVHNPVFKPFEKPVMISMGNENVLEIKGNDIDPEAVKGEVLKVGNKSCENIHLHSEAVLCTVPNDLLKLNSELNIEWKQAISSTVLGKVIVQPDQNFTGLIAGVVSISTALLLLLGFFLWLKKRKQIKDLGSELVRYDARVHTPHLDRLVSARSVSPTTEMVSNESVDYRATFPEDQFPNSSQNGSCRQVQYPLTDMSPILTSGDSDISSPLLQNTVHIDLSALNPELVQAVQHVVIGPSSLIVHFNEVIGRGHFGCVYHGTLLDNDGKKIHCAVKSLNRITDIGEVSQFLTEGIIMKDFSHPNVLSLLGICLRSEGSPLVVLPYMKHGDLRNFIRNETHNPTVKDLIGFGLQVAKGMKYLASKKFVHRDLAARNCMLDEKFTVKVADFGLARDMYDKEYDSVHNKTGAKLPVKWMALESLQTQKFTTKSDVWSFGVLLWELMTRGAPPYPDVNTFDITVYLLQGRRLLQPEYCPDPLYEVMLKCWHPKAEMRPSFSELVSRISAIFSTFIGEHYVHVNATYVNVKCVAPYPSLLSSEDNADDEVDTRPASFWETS", "protocol": "as §1"}, "KIT(V559D)": {"target": "KIT(V559D) (Homo sapiens, UniProt P10721, V559D)", "protocol": "as §1"}, "FGR": {"target": "FGR (Homo sapiens, UniProt P09769)", "sequence (P09769 whole entry)": "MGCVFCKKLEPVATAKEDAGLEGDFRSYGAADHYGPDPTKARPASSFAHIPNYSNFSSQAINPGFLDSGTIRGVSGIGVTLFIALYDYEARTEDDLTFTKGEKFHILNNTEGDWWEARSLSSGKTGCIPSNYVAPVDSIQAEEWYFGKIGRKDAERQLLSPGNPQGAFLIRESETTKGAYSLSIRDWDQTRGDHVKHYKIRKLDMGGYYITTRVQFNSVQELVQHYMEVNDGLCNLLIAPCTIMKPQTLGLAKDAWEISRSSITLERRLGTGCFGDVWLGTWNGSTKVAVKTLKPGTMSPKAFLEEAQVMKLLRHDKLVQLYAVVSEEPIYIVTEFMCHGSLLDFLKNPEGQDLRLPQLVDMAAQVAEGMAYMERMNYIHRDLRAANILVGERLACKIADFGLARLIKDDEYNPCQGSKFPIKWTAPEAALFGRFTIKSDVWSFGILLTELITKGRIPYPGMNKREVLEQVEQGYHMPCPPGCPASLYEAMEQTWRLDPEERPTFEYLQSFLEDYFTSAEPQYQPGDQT", "protocol": "as §1"}, "PLK3": {"target": "PLK3 (Homo sapiens, UniProt Q9H4B4)", "sequence (Q9H4B4 whole entry)": "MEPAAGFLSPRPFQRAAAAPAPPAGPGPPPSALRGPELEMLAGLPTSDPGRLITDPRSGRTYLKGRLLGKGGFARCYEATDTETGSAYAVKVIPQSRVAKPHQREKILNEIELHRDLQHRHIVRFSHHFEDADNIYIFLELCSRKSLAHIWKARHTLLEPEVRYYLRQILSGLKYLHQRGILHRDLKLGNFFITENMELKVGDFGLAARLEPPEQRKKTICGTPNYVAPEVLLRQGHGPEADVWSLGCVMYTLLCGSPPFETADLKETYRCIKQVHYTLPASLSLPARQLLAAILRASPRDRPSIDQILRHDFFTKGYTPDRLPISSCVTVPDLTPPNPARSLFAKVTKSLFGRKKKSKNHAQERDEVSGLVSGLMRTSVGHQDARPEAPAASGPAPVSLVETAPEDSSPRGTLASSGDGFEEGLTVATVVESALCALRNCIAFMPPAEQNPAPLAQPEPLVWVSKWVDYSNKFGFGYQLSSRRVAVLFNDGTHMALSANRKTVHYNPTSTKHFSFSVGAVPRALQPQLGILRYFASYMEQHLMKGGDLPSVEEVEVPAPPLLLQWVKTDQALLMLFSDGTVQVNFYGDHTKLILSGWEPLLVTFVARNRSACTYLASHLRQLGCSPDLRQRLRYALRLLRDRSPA", "protocol": "as §1"}, "CSNK1G3": {"target": "CSNK1G3 (Homo sapiens, UniProt Q9Y6M4)", "sequence (Q9Y6M4 whole entry)": "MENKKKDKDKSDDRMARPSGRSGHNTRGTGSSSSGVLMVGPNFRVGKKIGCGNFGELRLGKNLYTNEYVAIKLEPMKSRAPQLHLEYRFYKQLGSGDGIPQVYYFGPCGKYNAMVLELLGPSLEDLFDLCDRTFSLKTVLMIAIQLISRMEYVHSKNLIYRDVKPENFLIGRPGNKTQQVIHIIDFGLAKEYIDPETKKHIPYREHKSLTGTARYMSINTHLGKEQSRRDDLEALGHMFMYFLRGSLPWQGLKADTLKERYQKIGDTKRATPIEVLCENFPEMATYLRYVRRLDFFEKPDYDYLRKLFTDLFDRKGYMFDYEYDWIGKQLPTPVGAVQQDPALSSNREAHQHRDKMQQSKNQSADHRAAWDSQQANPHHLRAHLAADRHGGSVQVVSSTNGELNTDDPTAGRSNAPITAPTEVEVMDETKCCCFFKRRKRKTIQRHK", "protocol": "as §1"}, "EPHA7": {"target": "EPHA7 (Homo sapiens, UniProt Q15375)", "sequence (Q15375 whole entry)": "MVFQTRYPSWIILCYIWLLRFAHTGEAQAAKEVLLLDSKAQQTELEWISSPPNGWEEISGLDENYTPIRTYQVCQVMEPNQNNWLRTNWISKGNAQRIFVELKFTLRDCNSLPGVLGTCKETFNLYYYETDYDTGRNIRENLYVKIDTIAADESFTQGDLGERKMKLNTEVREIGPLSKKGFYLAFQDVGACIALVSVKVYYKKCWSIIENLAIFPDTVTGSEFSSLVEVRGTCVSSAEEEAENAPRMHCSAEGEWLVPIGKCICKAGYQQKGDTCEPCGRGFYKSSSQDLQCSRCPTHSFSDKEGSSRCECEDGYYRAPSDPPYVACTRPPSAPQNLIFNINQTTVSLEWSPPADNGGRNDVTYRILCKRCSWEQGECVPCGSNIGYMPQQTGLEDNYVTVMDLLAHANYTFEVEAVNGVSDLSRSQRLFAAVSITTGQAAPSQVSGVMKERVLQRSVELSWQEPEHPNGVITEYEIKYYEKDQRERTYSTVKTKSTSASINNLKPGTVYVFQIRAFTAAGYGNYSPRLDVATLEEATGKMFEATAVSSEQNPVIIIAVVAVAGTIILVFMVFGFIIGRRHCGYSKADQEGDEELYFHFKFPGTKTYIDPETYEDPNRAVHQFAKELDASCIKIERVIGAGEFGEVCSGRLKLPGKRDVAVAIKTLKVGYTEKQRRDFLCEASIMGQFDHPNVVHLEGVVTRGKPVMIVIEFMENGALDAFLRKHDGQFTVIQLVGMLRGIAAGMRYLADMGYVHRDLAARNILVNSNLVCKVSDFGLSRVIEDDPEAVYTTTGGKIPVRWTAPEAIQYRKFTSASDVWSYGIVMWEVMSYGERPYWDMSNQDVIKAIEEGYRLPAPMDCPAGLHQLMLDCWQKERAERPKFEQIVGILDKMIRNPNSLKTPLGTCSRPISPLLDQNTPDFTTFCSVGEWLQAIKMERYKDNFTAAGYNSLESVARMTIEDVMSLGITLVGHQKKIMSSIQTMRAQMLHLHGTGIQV", "protocol": "as §1"}, "MAPKAPK2": {"target": "MAPKAPK2 (Homo sapiens, UniProt P49137)", "protocol": "as §1"}, "PCTK1": {"target": "T2, PCTK1 (Homo sapiens, UniProt Q00536)", "T2 construct": "gene CDK16", "protocol": "as §1"}, "CAMK2B": {"target": "CAMK2B (Homo sapiens, UniProt Q13554)", "protocol": "as §1"}, "MKK7": {"target": "T3, MKK7 (Homo sapiens, UniProt O14733)", "T3 construct": "gene MAP2K7", "protocol": "as §1"}, "[2]": {"target": "T4, RSK1(Kin.Dom.1-N-terminal) (Homo sapiens, UniProt Q15418)", "T4 construct": "gene RPS6KA1; Kin.Dom.1-N-terminal", "protocol": "as §1"}, "BRAF": {"target": "BRAF (Homo sapiens, UniProt P15056)", "protocol": "as §1"}, "STK39": {"target": "STK39 (Homo sapiens, UniProt Q9UEW8)", "protocol": "as §1"}, "CDC2L5": {"target": "T5, CDC2L5 (Homo sapiens, UniProt Q14004)", "T5 construct": "gene CDK13", "protocol": "as §1"}, "DRAK2": {"target": "T6, DRAK2 (Homo sapiens, UniProt O94768)", "T6 construct": "gene STK17B", "protocol": "as §1"}, "EGFR(L858R)": {"target": "EGFR(L858R) (Homo sapiens, UniProt P00533, L858R)", "protocol": "as §1"}, "ERK4": {"target": "T7, ERK4 (Homo sapiens, UniProt P31152)", "T7 construct": "gene MAPK4", "protocol": "as §1"}, "RAF1": {"target": "RAF1 (Homo sapiens, UniProt P04049)", "protocol": "as §1"}, "PRKCQ": {"target": "PRKCQ (Homo sapiens, UniProt Q04759)", "sequence (Q04759 whole entry)": "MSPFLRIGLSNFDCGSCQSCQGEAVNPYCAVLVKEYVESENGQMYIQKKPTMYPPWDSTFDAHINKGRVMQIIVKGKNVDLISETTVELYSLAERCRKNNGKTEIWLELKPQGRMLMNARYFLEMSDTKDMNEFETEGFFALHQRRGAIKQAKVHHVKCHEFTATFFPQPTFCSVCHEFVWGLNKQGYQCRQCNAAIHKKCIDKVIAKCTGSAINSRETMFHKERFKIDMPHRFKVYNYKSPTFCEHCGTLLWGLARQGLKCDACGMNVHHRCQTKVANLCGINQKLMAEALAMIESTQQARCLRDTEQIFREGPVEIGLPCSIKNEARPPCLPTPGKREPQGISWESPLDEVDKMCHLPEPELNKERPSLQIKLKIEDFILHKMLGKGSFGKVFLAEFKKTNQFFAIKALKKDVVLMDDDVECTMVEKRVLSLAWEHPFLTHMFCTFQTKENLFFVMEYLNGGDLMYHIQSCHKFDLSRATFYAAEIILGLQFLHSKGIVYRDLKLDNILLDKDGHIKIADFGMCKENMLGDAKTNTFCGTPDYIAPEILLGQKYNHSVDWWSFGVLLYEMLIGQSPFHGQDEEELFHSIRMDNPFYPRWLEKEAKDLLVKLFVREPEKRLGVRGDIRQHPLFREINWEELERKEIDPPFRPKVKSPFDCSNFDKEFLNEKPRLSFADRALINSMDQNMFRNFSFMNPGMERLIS", "protocol": "as §1"}, "JNK2": {"target": "T8, JNK2 (Homo sapiens, UniProt P45984)", "T8 construct": "gene MAPK9", "protocol": "as §1"}, "BUB1": {"target": "BUB1 (Homo sapiens, UniProt O43683)", "protocol": "as §1"}, "OSR1": {"target": "T9, OSR1 (Homo sapiens, UniProt O95747)", "T9 construct": "gene OXSR1", "protocol": "as §1"}}}
{"smiles": "[O-][S@@+](Cc1cncs1)C(c1ccccc1)c1ccccc1", "note": "[S-CE-123, (S)-5-((Benzhydrylsulfinyl)Methyl)Thiazole]", "values": [{"measurement": "remaining binding at 2.8 µM", "setting": "MAP3K2", "result": 100, "unit": "%"}, {"measurement": "remaining binding at 2.8 µM", "setting": "[1]", "result": 96, "unit": "%"}, {"measurement": "remaining binding at 2.8 µM", "setting": "ACVR1", "result": 99, "unit": "%"}, {"measurement": "remaining binding at 2.8 µM", "setting": "EIF2AK1", "result": 100, "unit": "%"}, {"measurement": "remaining binding at 2.8 µM", "setting": "MET(Y1235D)", "result": 99, "unit": "%"}, {"measurement": "remaining binding at 2.8 µM", "setting": "KIT(V559D)", "result": 97, "unit": "%"}, {"measurement": "remaining binding at 2.8 µM", "setting": "FGR", "result": 100, "unit": "%"}, {"measurement": "remaining binding at 2.8 µM", "setting": "PLK3", "result": 95, "unit": "%"}, {"measurement": "remaining binding at 2.8 µM", "setting": "CSNK1G3", "result": 98, "unit": "%"}, {"measurement": "remaining binding at 2.8 µM", "setting": "EPHA7", "result": 96, "unit": "%"}, {"measurement": "remaining binding at 2.8 µM", "setting": "MAPKAPK2", "result": 99, "unit": "%"}, {"measurement": "remaining binding at 2.8 µM", "setting": "PCTK1", "result": 97, "unit": "%"}, {"measurement": "remaining binding at 2.8 µM", "setting": "CAMK2B", "result": 87, "unit": "%"}, {"measurement": "remaining binding at 2.8 µM", "setting": "MKK7", "result": 100, "unit": "%"}, {"measurement": "remaining binding at 2.8 µM", "setting": "[2]", "result": 80, "unit": "%"}, {"measurement": "remaining binding at 2.8 µM", "setting": "BRAF", "result": 100, "unit": "%"}, {"measurement": "remaining binding at 2.8 µM", "setting": "STK39", "result": 100, "unit": "%"}, {"measurement": "remaining binding at 2.8 µM", "setting": "CDC2L5", "result": 98, "unit": "%"}, {"measurement": "remaining binding at 2.8 µM", "setting": "DRAK2", "result": 95, "unit": "%"}, {"measurement": "remaining binding at 2.8 µM", "setting": "EGFR(L858R)", "result": 92, "unit": "%"}, {"measurement": "remaining binding at 2.8 µM", "setting": "ERK4", "result": 100, "unit": "%"}, {"measurement": "remaining binding at 2.8 µM", "setting": "RAF1", "result": 76, "unit": "%"}, {"measurement": "remaining binding at 2.8 µM", "setting": "PRKCQ", "result": 100, "unit": "%"}, {"measurement": "remaining binding at 2.8 µM", "setting": "JNK2", "result": 90, "unit": "%"}, {"measurement": "remaining binding at 2.8 µM", "setting": "BUB1", "result": 100, "unit": "%"}, {"measurement": "remaining binding at 2.8 µM", "setting": "OSR1", "result": 90, "unit": "%"}]}
